Measurements taken from ChEMBL document CHEMBL5625197, “The mystery of titan hunter: Rationalized striking of the MAPK pathway via Newly synthesized 6-Indolylpyridone-3-Carbonitrile derivatives” (Eur J Med Chem, 2023).

Columns and labels:
[1] = biological target: Epidermal growth factor receptor (Homo sapiens, UniProt P00533, T790M); experiment: Inhibition of EGFR T790M mutant (unknown origin)
HCT-116 [2] = experiment: Cytotoxicity against human HCT-116 cells assessed as cell growth inhibition incubated for 4 days by MTT assay; assay type: functional; details: HCT-116, 96 h, time 4 day
HOP-92 [3] = experiment: Induction of apoptosis in human HOP-92 cells assessed as fold change in Bcl-2 gene expression by RT-PCR analysis; assay type: functional
[4] = biological target: Serine/threonine-protein kinase B-raf (Homo sapiens, UniProt P15056, V600E); experiment: Inhibition of B-RAF V600E mutant (unknown origin)
HOP-92 [5] = experiment: Inhibition of cell invasion in human HOP-92 cells incubated for 15 to 20 mins by crystal violet staining based trans-well assay relative to control; assay type: functional; details: time 15-20 min
HOP-92 [6] = experiment: Induction of apoptosis in human HOP-92 cells assessed as fold change in ratio of Bax/Bcl-2 gene expression by RT-PCR analysis; assay type: functional
[7] = Selectivity index, ratio of GI50 for cytotoxicity against human HEK293 cells to GI50 for cytotoxicity against human RXF 393 cells
[8] = Cytotoxicity against human FHC cells assessed as cell growth inhibition incubated for 4 days by MTT assay
RXF 393 [9] = experiment: cells; assay type: functional; details: Homo sapiens, RXF 393, 96 h, time 4 day, read-out: GI
Description: Growth inhibition of human RXF 393 cells at 10 uM incubated for 4 days by MTT assay relative to control

[10] = Selectivity index, ratio of GI50 for cytotoxicity against human PCS-800-011 cells to GI50 for cytotoxicity against human SR cells; assay type: toxicity, cell-based; details: PCS-800-011 cells versus SR cells, read-out: RatioGI50
[11] = Cytotoxicity against human PCS-800-011 cells assessed as fold change in cell growth inhibition incubated for 4 days by MTT assay; assay type: toxicity, cell-based; details: pcs-800-011, 96 h, time 4 day
HOP-92 [12] = experiment: Induction of cell cycle arrest in human HOP-92 cells assessed as accumulation of cells at S phase (reference value: 29.57 %); assay type: functional
HOP-92 [13] = experiment: Induction of apoptosis in human HOP-92 cells assessed as fold change in TNFR1 gene expression by RT-PCR analysis; assay type: functional
[14] = biological target: Serine/threonine-protein kinase B-raf (Homo sapiens, UniProt P15056); experiment: Inhibition of wild type B-RAF (unknown origin)
HOP-92 [15] = experiment: Induction of apoptosis in human HOP-92 cells assessed as fold change in caspase-3 gene expression by RT-PCR analysis; assay type: functional
[16] = biological target: Epidermal growth factor receptor (Homo sapiens, UniProt P00533); experiment: Inhibition of wild type EGFR (unknown origin)
[17] = Selectivity index, ratio of GI50 for cytotoxicity against human MRC5 cells to GI50 for cytotoxicity against human HOP-92 cells
HOP-92 [18] = experiment: Induction of cell cycle arrest in human HOP-92 cells assessed as cell debris (reference value: 2.18 %); assay type: functional
HCT-116 [19] = experiment: cells; assay type: functional; details: Homo sapiens, HCT-116, 96 h, time 4 day, read-out: GI
Description: Growth inhibition of human HCT-116 cells at 10 uM incubated for 4 days by MTT assay relative to control

[20] = biological target: Cyclin-dependent kinase 6 (Homo sapiens, UniProt Q00534); experiment: Inhibition of CDK6 (unknown origin)
HOP-92 [21] = experiment: Cytotoxicity against human HOP-92 cells assessed as cell growth inhibition incubated for 4 days by MTT assay; assay type: functional; details: HOP-92, 96 h, time 4 day
HOP-92 [22] = experiment: Induction of cell cycle arrest in human HOP-92 cells assessed as accumulation of cells at G2/M phase (reference value: 15.6 %); assay type: functional
HOP-92 [23] = experiment: Induction of apoptosis in human HOP-92 cells assessed as fold change in caspase-9 gene expression by RT-PCR analysis; assay type: functional
HOP-92 [24] = experiment: Induction of apoptosis in human HOP-92 cells assessed as fold change in p53 gene expression by RT-PCR analysis; assay type: functional
[25] = Cytotoxicity against human PCS-800-011 cells assessed as cell growth inhibition incubated for 4 days by MTT assay
SR [26] = experiment: cells; assay type: functional; details: Homo sapiens, 96 h, time 4 day, read-out: GI
Description: Growth inhibition of human SR cells at 10 uM incubated for 4 days by MTT assay relative to control

HOP-92 [27] = experiment: Inhibition of cell migration in human HOP-92 cells incubated for 15 to 20 mins by crystal violet staining based trans-well assay relative to control; assay type: functional; details: time 15-20 min
RXF 393 [28] = experiment: Cytotoxicity against human RXF 393 cells assessed as cell growth inhibition incubated for 4 days by MTT assay; assay type: functional; details: RXF 393, 96 h, time 4 day
HOP-92 [29] = experiment: Induction of apoptosis in human HOP-92 cells assessed as fold change in Bax gene expression by RT-PCR analysis; assay type: functional
HOP-92 [30] = experiment: Induction of apoptosis in human HOP-92 cells assessed as fold change in caspase-8 gene expression by RT-PCR analysis; assay type: functional
HOP-92 [31] = experiment: Induction of cell cycle arrest in human HOP-92 cells assessed as cell aggregation (reference value: 1.77 %); assay type: functional
[32] = Cytotoxicity against human MRC5 cells assessed as cell growth inhibition incubated for 4 days by MTT assay
HOP-92 [33] = experiment: Induction of cell cycle arrest in human HOP-92 cells assessed as accumulation of cells at G0/G1 phase (reference value: 54.83 %); assay type: functional
HOP-92 [34] = experiment: cells; assay type: functional; details: Homo sapiens, HOP-92, 96 h, time 4 day, read-out: GI
Description: Growth inhibition of human HOP-92 cells at 10 uM incubated for 4 days by MTT assay relative to control

HOP-92 [35] = experiment: Induction of apoptosis in human HOP-92 cells assessed as PARP1 gene expression level by RT-PCR analysis relative to control; assay type: functional
HOP-92 [36] = experiment: Induction of apoptosis in human HOP-92 cells assessed as necrosis rate by Annexin V/ PI staining based flow cytometry (reference value: 1.6 %); assay type: functional
HOP-92 [37] = experiment: Induction of apoptosis in human HOP-92 cells assessed as fold change in PARP1 gene expression by RT-PCR analysis; assay type: functional
HOP-92 [38] = experiment: Induction of apoptosis in human HOP-92 cells assessed as late apoptotic rate by Annexin V/ PI staining based flow cytometry (reference value: 0.26 %); assay type: functional
[39] = biological target: Cyclin-dependent kinase 4 (Homo sapiens, UniProt P11802); experiment: Inhibition of CDK4 (unknown origin)
HOP-92 [40] = experiment: Inhibition of cell migration in human HOP-92 cells assessed as fold decrease in cell count incubated for 15 to 20 mins by crystal violet staining based trans-well assay; assay type: functional; details: time 15-20 min
[41] = Cytotoxicity against human HEK293 cells assessed as cell growth inhibition incubated for 4 days by MTT assay
HOP-92 [42] = experiment: Induction of apoptosis in human HOP-92 cells assessed as total apoptotic rate by Annexin V/ PI staining based flow cytometry (reference value: 2.28 %); assay type: functional
HOP-92 [43] = experiment: Inhibition of colony formation in human HOP-92 cells incubated for 24 hrs by crystal violet staining based assay relative to control; assay type: functional
[44] = Selectivity index, ratio of GI50 for cytotoxicity against human FHC cells to GI50 for cytotoxicity against human HCT-116 cells; assay type: toxicity, cell-based; details: FHC cells versus HCT-116 cells, read-out: RatioGI50
[45] = biological target: Hepatocyte growth factor receptor (Homo sapiens, UniProt P08581); experiment: Inhibition of c-Met (unknown origin)
HOP-92 [46] = experiment: Induction of apoptosis in human HOP-92 cells assessed as early apoptotic rate by Annexin V/ PI staining based flow cytometry (reference value: 0.42 %); assay type: functional
SR [47] = experiment: Cytotoxicity against human SR cells assessed as cell growth inhibition incubated for 4 days by MTT assay; assay type: functional; details: 96 h, time 4 day

SMILES: N#Cc1c(-c2ccc(Cl)cc2Cl)cc(-c2c[nH]c3ccccc23)[nH]c1=O
- IC50 [1]: 69 nM
- GI50 (HCT-116 [2]): 2530 nM
- fold change (FC) (HOP-92 [3]): 0.18
- IC50 [4]: 83 nM
- inhibition (INH) (HOP-92 [5]): 49.99%
- fold change (FC) (HOP-92 [6]): 30.5
- RatioGI50 [7]: 7.18
- GI50 at 96 h [8]: 26800 nM
- inhibition of growth at 10 µM (RXF 393 [9]): 58.4%
- selectivity ratio [10]: 18
- fold change (FC) [11]: 2.3
- Activity (HOP-92 [12]): 34.11%
- fold change (FC) (HOP-92 [13]): 0.27
- IC50 [14]: 112 nM
- fold change (FC) (HOP-92 [15]): 7.93
- IC50 [16]: 281 nM
- RatioGI50 [17]: 37.87
- Activity (HOP-92 [18]): 2.12%
- inhibition of growth at 10 µM (HCT-116 [19]): 82.8%
- IC50 [20]: 184 nM
- GI50 (HOP-92 [21]): 750 nM
- Activity (HOP-92 [22]): 6.71%
- fold change (FC) (HOP-92 [23]): 6.75
- fold change (FC) (HOP-92 [24]): 5.97
- GI50 at 96 h [25]: 49700 nM
- inhibition of growth at 10 µM (SR [26]): 74.7%
- inhibition (INH) (HOP-92 [27]): 61.59%
- GI50 (RXF 393 [28]): 3120 nM
- fold change (FC) (HOP-92 [29]): 5.49
- fold change (FC) (HOP-92 [30]): 2.99
- Activity (HOP-92 [31]): 1.88%
- GI50 at 96 h [32]: 28500 nM
- Activity (HOP-92 [33]): 59.18%
- inhibition of growth at 10 µM (HOP-92 [34]): 79.8%
- Activity (HOP-92 [35]): 20%
- Activity (HOP-92 [36]): 7.62%
- fold change (FC) (HOP-92 [37]): 0.23
- Activity (HOP-92 [38]): 14.91%
- IC50 [39]: 95 nM
- fold change (FC) (HOP-92 [40]): 2.6
- GI50 at 96 h [41]: 22400 nM
- Activity (HOP-92 [42]): 46.71%
- inhibition (INH) (HOP-92 [43]): 61.6%
- selectivity ratio [44]: 10.6
- IC50 [45]: 205 nM
- Activity (HOP-92 [46]): 24.18%
- GI50 (SR [47]): 2770 nM
